Results reported in patent US10322111B2, “Chemokine receptor binding heterocyclic compounds with enhanced efficacy” (Genzyme Corporation, priority 2001, dated 2019).
Where two headings read alike, the source gives them in different places.

System: CFU-GM, BFU-E and CFU-GEMM progenitor cells
Conditions: 80 μg/kg s.c.; for % CHG, BFU-E, methylcellulose culture / % CHG, CFU-GEMM, methylcellulose culture / % CHG, CFU-GM, methylcellulose culture / mean fold change compared to T 0, BFU-E, methylcellulose culture, MEAN / mean fold change compared to T 0, CFU-GEMM, methylcellulose culture, MEAN / mean fold change compared to T 0, CFU-GM, methylcellulose culture, MEAN: all five donors

c1cc(CN2CCCNCCNCCCNCC2)ccc1CN1CCCNCCNCCCNCC1 [AMD3100, 1,1′-[1,4-phenylene-bis(methylene)]-bis-1,4,8,11-tetraazacyclotetradecane]
fold change from T=0, progenitors CFU-GM, methylcellulose culture (P3, T = 24 h after injection): 1.43 fold
Absolute # of Progenitors per ML, BFU-E (P4, T = 1 h after injection): 672 per ML
Absolute # of Progenitors per ML, CFU-GEMM (P4, T = 1 h after injection): 199 per ML
Absolute # of Progenitors per ML, CFU-GM (P4, T = 1 h after injection): 947 per ML
fold change from T=0, progenitors BFU-E, methylcellulose culture (P4, T = 1 h after injection): 1.46 fold
fold change from T=0, progenitors CFU-GEMM, methylcellulose culture (P4, T = 1 h after injection): 1.96 fold
fold change from T=0, progenitors CFU-GM, methylcellulose culture (P4, T = 1 h after injection): 6.87 fold
Absolute # of Progenitors per ML, BFU-E (P4, T = 3 h after injection): 1195 per ML
Absolute # of Progenitors per ML, CFU-GEMM (P4, T = 3 h after injection): 519 per ML
Absolute # of Progenitors per ML, CFU-GM (P4, T = 3 h after injection): 2857 per ML
fold change from T=0, progenitors BFU-E, methylcellulose culture (P4, T = 3 h after injection): 2.60 fold
fold change from T=0, progenitors CFU-GEMM, methylcellulose culture (P4, T = 3 h after injection): 5.14 fold
fold change from T=0, progenitors CFU-GM, methylcellulose culture (P4, T = 3 h after injection): 20.72 fold
Absolute # of Progenitors per ML, BFU-E (P4, T = 6 h after injection): 1533 per ML
Absolute # of Progenitors per ML, CFU-GEMM (P4, T = 6 h after injection): 920 per ML
Absolute # of Progenitors per ML, CFU-GM (P4, T = 6 h after injection): 3936 per ML
fold change from T=0, progenitors BFU-E, methylcellulose culture (P4, T = 6 h after injection): 3.34 fold
fold change from T=0, progenitors CFU-GEMM, methylcellulose culture (P4, T = 6 h after injection): 9.10 fold
fold change from T=0, progenitors CFU-GM, methylcellulose culture (P4, T = 6 h after injection): 28.54 fold
Absolute # of Progenitors per ML, BFU-E (P4, T = 9 h after injection): 1348 per ML
Absolute # of Progenitors per ML, CFU-GEMM (P4, T = 9 h after injection): 457 per ML
Absolute # of Progenitors per ML, CFU-GM (P4, T = 9 h after injection): 1942 per ML
fold change from T=0, progenitors BFU-E, methylcellulose culture (P4, T = 9 h after injection): 2.93 fold
fold change from T=0, progenitors CFU-GEMM, methylcellulose culture (P4, T = 9 h after injection): 4.52 fold
fold change from T=0, progenitors CFU-GM, methylcellulose culture (P4, T = 9 h after injection): 14.08 fold
Absolute # of Progenitors per ML, BFU-E (P4, T = 24 h after injection): 362 per ML
Absolute # of Progenitors per ML, CFU-GEMM (P4, T = 24 h after injection): 99 per ML
Absolute # of Progenitors per ML, CFU-GM (P4, T = 24 h after injection): 208 per ML
fold change from T=0, progenitors BFU-E, methylcellulose culture (P4, T = 24 h after injection): 0.79 fold
fold change from T=0, progenitors CFU-GEMM, methylcellulose culture (P4, T = 24 h after injection): 0.98 fold
fold change from T=0, progenitors CFU-GM, methylcellulose culture (P4, T = 24 h after injection): 1.51 fold
Absolute # of Progenitors per ML, BFU-E (P5, T = 1 h after injection): 730 per ML
Absolute # of Progenitors per ML, CFU-GEMM (P5, T = 1 h after injection): 169 per ML
Absolute # of Progenitors per ML, CFU-GM (P5, T = 1 h after injection): 481 per ML
fold change from T=0, progenitors BFU-E, methylcellulose culture (P5, T = 1 h after injection): 2.13 fold
fold change from T=0, progenitors CFU-GEMM, methylcellulose culture (P5, T = 1 h after injection): 3.07 fold
fold change from T=0, progenitors CFU-GM, methylcellulose culture (P5, T = 1 h after injection): 2.84 fold
Absolute # of Progenitors per ML, BFU-E (P5, T = 3 h after injection): 1288 per ML
Absolute # of Progenitors per ML, CFU-GEMM (P5, T = 3 h after injection): 244 per ML
Absolute # of Progenitors per ML, CFU-GM (P5, T = 3 h after injection): 1423 per ML
fold change from T=0, progenitors BFU-E, methylcellulose culture (P5, T = 3 h after injection): 3.75 fold
fold change from T=0, progenitors CFU-GM, methylcellulose culture (P5, T = 3 h after injection): 8.40 fold
Absolute # of Progenitors per ML, BFU-E (P5, T = 6 h after injection): 3208 per ML
Absolute # of Progenitors per ML, CFU-GEMM (P5, T = 6 h after injection): 987 per ML
Absolute # of Progenitors per ML, CFU-GM (P5, T = 6 h after injection): 3454 per ML
fold change from T=0, progenitors BFU-E, methylcellulose culture (P5, T = 6 h after injection): 9.35 fold
fold change from T=0, progenitors CFU-GEMM, methylcellulose culture (P5, T = 6 h after injection): 17.92 fold
fold change from T=0, progenitors CFU-GM, methylcellulose culture (P5, T = 6 h after injection): 20.39 fold
Absolute # of Progenitors per ML, BFU-E (P5, T = 9 h after injection): 1731 per ML
Absolute # of Progenitors per ML, CFU-GEMM (P5, T = 9 h after injection): 526 per ML
Absolute # of Progenitors per ML, CFU-GM (P5, T = 9 h after injection): 1710 per ML
fold change from T=0, progenitors BFU-E, methylcellulose culture (P5, T = 9 h after injection): 5.05 fold
fold change from T=0, progenitors CFU-GEMM, methylcellulose culture (P5, T = 9 h after injection): 9.55 fold
fold change from T=0, progenitors CFU-GM, methylcellulose culture (P5, T = 9 h after injection): 10.09 fold
Absolute # of Progenitors per ML, BFU-E (P5, T = 24 h after injection): 495 per ML
Absolute # of Progenitors per ML, CFU-GEMM (P5, T = 24 h after injection): 124 per ML
Absolute # of Progenitors per ML, CFU-GM (P5, T = 24 h after injection): 310 per ML
fold change from T=0, progenitors BFU-E, methylcellulose culture (P5, T = 24 h after injection): 1.44 fold
fold change from T=0, progenitors CFU-GEMM, methylcellulose culture (P5, T = 24 h after injection): 2.25 fold
fold change from T=0, progenitors CFU-GM, methylcellulose culture (P5, T = 24 h after injection): 1.83 fold
% CHG, BFU-E, methylcellulose culture (T = 1 h after injection): 98.9%
% CHG, CFU-GEMM, methylcellulose culture (T = 1 h after injection): 131.8%
% CHG, CFU-GM, methylcellulose culture (T = 1 h after injection): 376.7%
mean fold change compared to T 0, BFU-E, methylcellulose culture, MEAN (T = 1 h after injection): 1.99 fold
mean fold change compared to T 0, CFU-GEMM, methylcellulose culture, MEAN (T = 1 h after injection): 2.32 fold
mean fold change compared to T 0, CFU-GM, methylcellulose culture, MEAN (T = 1 h after injection): 4.77 fold
% CHG, BFU-E, methylcellulose culture (T = 3 h after injection): 221.3%
% CHG, CFU-GEMM, methylcellulose culture (T = 3 h after injection): 332.5%
% CHG, CFU-GM, methylcellulose culture (T = 3 h after injection): 1266.5%
mean fold change compared to T 0, BFU-E, methylcellulose culture, MEAN (T = 3 h after injection): 3.21 fold
mean fold change compared to T 0, CFU-GEMM, methylcellulose culture, MEAN (T = 3 h after injection): 4.33 fold
mean fold change compared to T 0, CFU-GM, methylcellulose culture, MEAN (T = 3 h after injection): 13.66 fold
% CHG, BFU-E, methylcellulose culture (T = 6 h after injection): 500.5%
% CHG, CFU-GEMM, methylcellulose culture (T = 6 h after injection): 907.2%
% CHG, CFU-GM, methylcellulose culture (T = 6 h after injection): 2070.6%
mean fold change compared to T 0, BFU-E, methylcellulose culture, MEAN (T = 6 h after injection): 6.01 fold
mean fold change compared to T 0, CFU-GEMM, methylcellulose culture, MEAN (T = 6 h after injection): 10.07 fold
mean fold change compared to T 0, CFU-GM, methylcellulose culture, MEAN (T = 6 h after injection): 21.71 fold
% CHG, BFU-E, methylcellulose culture (T = 9 h after injection): 334.4%
% CHG, CFU-GEMM, methylcellulose culture (T = 9 h after injection): 425.4%
% CHG, CFU-GM, methylcellulose culture (T = 9 h after injection): 947.3%
mean fold change compared to T 0, BFU-E, methylcellulose culture, MEAN (T = 9 h after injection): 4.34 fold
mean fold change compared to T 0, CFU-GEMM, methylcellulose culture, MEAN (T = 9 h after injection): 5.25 fold
mean fold change compared to T 0, CFU-GM, methylcellulose culture, MEAN (T = 9 h after injection): 10.47 fold
% CHG, BFU-E, methylcellulose culture (T = 24 h after injection): 26.3%
% CHG, CFU-GEMM, methylcellulose culture (T = 24 h after injection): 53.2%
% CHG, CFU-GM, methylcellulose culture (T = 24 h after injection): 55.5%
mean fold change compared to T 0, BFU-E, methylcellulose culture, MEAN (T = 24 h after injection): 1.26 fold
mean fold change compared to T 0, CFU-GEMM, methylcellulose culture, MEAN (T = 24 h after injection): 1.53 fold
mean fold change compared to T 0, CFU-GM, methylcellulose culture, MEAN (T = 24 h after injection): 1.56 fold
